Test results published in patent publication US8845999B2 (The Regents of the University of California, priority 2005, dated 2014).
Like-named read-outs stand apart in the source and are kept apart here.

Legend:
human GLUT1 = biological target: T1, human GLUT1 (Homo sapiens, UniProt P11166); conditions: cited from earlier work
T1 construct: host or cells: human erythrocytes (endogenous transporter)
T1 sequence (P11166 1-492): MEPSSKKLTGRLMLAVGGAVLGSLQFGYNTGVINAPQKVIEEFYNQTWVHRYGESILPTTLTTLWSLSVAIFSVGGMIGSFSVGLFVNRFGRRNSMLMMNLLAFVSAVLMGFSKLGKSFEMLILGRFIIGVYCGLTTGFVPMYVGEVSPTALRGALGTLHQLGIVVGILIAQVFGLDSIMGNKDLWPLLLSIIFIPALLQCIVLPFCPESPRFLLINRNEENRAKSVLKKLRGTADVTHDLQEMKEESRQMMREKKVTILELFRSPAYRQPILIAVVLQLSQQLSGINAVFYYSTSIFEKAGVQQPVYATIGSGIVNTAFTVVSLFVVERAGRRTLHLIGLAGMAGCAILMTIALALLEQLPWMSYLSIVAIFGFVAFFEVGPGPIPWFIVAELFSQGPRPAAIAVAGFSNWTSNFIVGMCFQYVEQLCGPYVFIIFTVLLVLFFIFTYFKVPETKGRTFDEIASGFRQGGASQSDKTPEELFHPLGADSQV

[1] = tested on: sodium-dependent glucose transporters (SGLTs); test: Micro-PET tests in rodents and PET tests in Vervet monkeys and human volunteers: substrate specificity; assay type: in vivo; conditions: both anomeric forms
Excerpt: A nonlimiting example of a radiolabeled tracer according to the present invention is methyl 4-deoxy-4-[^18F]fluoro-D-glucopyranoside (“Me-4-[^18F]-FDG”), synthesized in either of its two anomeric forms, alpha-methyl 4-[^18F]-FDG and beta-methyl 4-[^18F]-FDG, or as a racemic mixture. […] For example, Me-4-[^18F]-FDG is not a substrate for GLUT1 in the blood brain barrier. It is a novel, high affinity tracer for SGLTs in those cells expressing SGLTs.

SGLT1 [2] = biological target: T2, SGLT1 (Homo sapiens, UniProt P13866); test: Affinity for SGLT1; assay type: biochemical
T2 sequence (P13866 1-664): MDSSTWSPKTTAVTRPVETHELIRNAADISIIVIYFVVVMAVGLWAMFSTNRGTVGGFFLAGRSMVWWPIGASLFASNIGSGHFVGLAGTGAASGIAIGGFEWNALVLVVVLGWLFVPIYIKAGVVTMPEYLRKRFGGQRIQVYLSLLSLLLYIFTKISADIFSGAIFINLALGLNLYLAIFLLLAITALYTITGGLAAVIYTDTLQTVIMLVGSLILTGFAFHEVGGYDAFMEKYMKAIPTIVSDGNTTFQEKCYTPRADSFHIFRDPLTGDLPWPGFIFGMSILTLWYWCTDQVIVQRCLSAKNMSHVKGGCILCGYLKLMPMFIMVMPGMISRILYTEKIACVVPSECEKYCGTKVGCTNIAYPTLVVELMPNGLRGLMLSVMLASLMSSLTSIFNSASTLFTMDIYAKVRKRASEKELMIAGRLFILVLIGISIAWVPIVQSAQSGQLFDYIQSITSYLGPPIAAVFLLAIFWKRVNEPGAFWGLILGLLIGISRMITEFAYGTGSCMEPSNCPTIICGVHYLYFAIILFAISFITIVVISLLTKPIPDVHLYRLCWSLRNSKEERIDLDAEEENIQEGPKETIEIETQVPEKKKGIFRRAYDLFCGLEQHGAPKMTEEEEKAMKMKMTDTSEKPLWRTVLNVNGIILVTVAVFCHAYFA
Excerpt: A [^11C]-methyl-D-glucoside has been synthesized and biologically evaluated as a tracer of sodium dependent glucose transporters. […] A commentary on this paper was published in the same issue of the journal. […] In addition, three ^18F-fluoro-n-alkyl glucosides have been synthesized and evaluated as potential substrates for sodium/glucose cotransporters. […] There are limitations with these probes in that the lifetime of [^11C] is shorter than that of [^18F]
Optionally, additional information can be obtained by also administering one or more pharmacological or other agents to the animal, and monitoring the effect of the agent(s) on tracer uptake and distribution. Nonlimiting examples of suitable agents, include sodium ion, glucose, galactose, and phlorizin. […] Any therapeutic agent can also be used to evaluate its potential role and in vivo activity on SGLTs in various organs, using in vivo competitive kinetics with the radiolabeled tracer.

SGLTs [3] = test: Whole body PET scan of human subjects; assay type: in vivo
Experimental: For a 50-70 kg person, 10 mC of methyl 4-deoxy-4-[^18F]fluoro-D-glucopyranoside dissolved in <1 ml saline is injected intravenously, and the distribution of the tracer is followed dynamically in whole body PET scans for up to 2 hours (up to 8 scans at different time intervals). SGLT activity in organs and tissues is determined from the tracer uptake. The anatomical location of tracer uptake in both normal subjects and cancer patients is determined using CT scans.
FIGS. 4 and 5 are nonlimiting examples of 2-[^18F]-FDG and Methyl 4[^18F]-FDG scans, respectively, of the same human subject.
FIG. 6 is a nonlimiting example of a whole body PET scan of a patient with Glucose-Galactose-Malabsorption (missing functional SGLT1 in their body), after being injected with Me-[18F]-4FDG.

SGLTs [4] = test: Whole body PET scan of Vervet monkey; assay type: in vivo; conditions: FIG. 3
Excerpt: Scans can be conducted both with and without administering one or more pharmacological agents, e.g., sodium, phlorizin, glucose, galactose, etc.
FIG. 3 is a nonlimiting example of a methyl 4-[^18F]-FDG whole body PET scan of a Vervet monkey.

SGLTs [5] = test: MicroPET images of rat's brain after intravenous injection of radiofluorinated glucose derivatives; conditions: same animal, images 50-70 min after intravenous injection, FIG. 7
Experimental: A bolus of a radiolabeled tracer is administered to a non-human primate, rodent, or other non-human mammal, intravenously or orally, and the distribution of tracer transport activity is followed by radiographic means, e.g., PET, microPET and/or SPECT. For PET, an intravenous dose of the tracer contains ˜200 μC/Kg (body weight) methyl 4-[^18F]fluoro-4-deoxy-D-glucopyranoside dissolved in <1 ml saline. […] The identity of each organ and tissue taking up the tracer is confirmed by CT scans.
FIG. 7 presents MicroPET images of a rat's brain after injection of radiofluorinated glucose derivatives. […] These experiments were performed in the same animal at three different occasions. […] The images were acquired using a Concorde 220 microPET camera (Siemens/CTI, Knoxville, Tenn.). The animal was kept under anesthesia with 2% isoflurane in oxygen during all three experiments. Injectable solutions of all radiotracers were prepared in normal saline (0.9% NaCl).

Hexokinase [6] = tested on: T3, Hexokinase; parameters: Hexokinase Vmax: unit not given here; conditions: Bessel (1972), cited from earlier work; for Hexokinase Vmax: D-glucose = 1
T3 construct: Hexokinase Ki; other: Bessel (1972); Hexokinase Vmax; D-glucose = 1; hexokinase maximum velocity lower than that for D-glucose

Hexokinase [7] = test: Hexokinase kinetics (Bessel 1972); assay type: biochemical
[8] = Preliminary microPET studies of brain uptake; conditions: rodent
Hexokinase [9] = tested on: T3, Hexokinase; test: Hexokinase kinetics (Bessel 1972); assay type: biochemical; conditions: from Table 2
SGLT1 [10] = conditions: pumped into cells by SGLT1; cited from earlier work
[11] = substrate: O=C[C@H](O)[C@@H](O)[C@H](O)[C@H](O)CO; test: Kinetics of halogenated hexose transport by human SGLT1 expressed in Xenopus laevis oocytes, electrophysiological assay; assay type: cell-based; conditions: other: human SGLT1 in Xenopus laevis oocytes
Excerpt: (§1) We have expressed human SGLT1 in the Xenopus laevis oocyte expression system and measured the kinetics of halogenated hexose transport using standard electrophysiological assays (see Diez-Sampedro et al. J. Biological Chemistry, 2001, 276: 49188-49194). Table 2 presents kinetic measurements of the SGLT1 affinities of various sugars. […] “Km.” is the Michaelis-Menten constant and refers to the ability of a sugar to be a substrate for a specific enzyme or transporter. The lower the Km, the better the substrate. “Vmax” refers to the maximum velocity of transport (or enzymatic reaction). Km is the concentration of substrate at ½ Vmax. “Ki” is an inhibition constant for a specific enzyme or transporter, obtained by competitive kinetics against a known substrate.

[12] = substrate: O=C[C@H](O)[C@@H](O)[C@@H](O)[C@H](O)CO; test: as above; assay type: cell-based; conditions: other: human SGLT1 in Xenopus laevis oocytes
Excerpt: as §1

[13] = Barnett et al. (1973), read-out: GLUT1 Ki
[14] = Barnett et al. 1973, read-out: inhibitor constants for sugar uptakes into human erythrocytes

## OC[C@H]1OC(F)[C@H](O)[C@@H](O)[C@@H]1O (stereo partly drawn) [1-F-1-deoxy-D-glucose, 1-[^18F]fluoro-1-deoxy-D-glucose]
Human GLUT1; [13]
  Ki: 15 mM

## O=C[C@H](O)[C@@H](O)[C@@H](O)[C@H](O)CF
Human GLUT1; [14]
  Ki: ~7 mM

## COC1O[C@H](CO)[C@@H]([18F])[C@H](O)[C@H]1O (stereo partly drawn) [Me-4-[^18F]-FDG, methyl 4-deoxy-4-[^18F]fluoro-D-glucopyranoside]
[1]
  substrate for SGLTs / GLUTs: substrate for sodium-dependent glucose transporters (SGLTs), but not a substrate for GLUTs
SGLT1 [2]
  affinity for SGLT1: 50 µM
SGLTs [3]; patient with Glucose-Galactose-Malabsorption (missing functional SGLT1), FIG. 6
  excretion into the urinary bladder, whole body PET: excretion of the tracer into the urinary bladder
SGLTs [4]
  tracer distribution, whole body PET: accumulated in the liver, heart, and kidneys, but not in the brain and little in the urinary bladder
SGLTs [5]
  brain uptake / crossing of the blood-brain barrier, microPET: lack of brain uptake

## O=C[C@H](O)[C@@H](O)[C@H](O)[C@H](O)C[18F] [6-F-4-deoxy-D-glucose]
Hexokinase [6]
  Hexokinase Vmax: 0
Hexokinase [7]
  substrate quality for hexokinase: poor substrates for hexokinase

## O=C[C@H](O)[C@@H](O)[C@H]([18F])[C@H](O)CO [4-F-4-deoxy-D-glucose]
Hexokinase [6]
  Hexokinase Vmax: 0.1
[8]
  uptake into brain, microPET: taken up rapidly into rodent brains
Hexokinase [7]
  substrate quality for hexokinase: poor substrates for hexokinase
Hexokinase [9]
  hexokinase affinity lower than that for D-glucose: 400 fold
  hexokinase maximum velocity lower than that for D-glucose: 10 fold

## O=C[C@H](O)[C@@H](O)[C@H](O)[C@H](O)CF [6-F-4-deoxy-D-glucose]
Human GLUT1; [14]
  Ki: 1.3 mM
Human GLUT1; [13]
  Ki: 1 mM

## CO[C@H]1O[C@H](CO)[C@@H](O)[C@H](O)[C@H]1O [alpha-methyl-D-glucopyranoside]
SGLT1 [10]
  concentration in cells above plasma concentrations: ≤ 800 fold

## OC[C@H]1OC(O)[C@H](F)[C@@H](O)[C@@H]1O (stereo partly drawn) [2-F-2-deoxy-D-glucose, 2-deoxy-2-[^18F]fluoro-D-glucose]
Hexokinase [6]
  Ki: 0.2 mM
Human GLUT1; [13]
  Ki: 3.6 mM

## O=C[C@H](O)[C@@H](O)[C@H](F)[C@H](O)CO [4-F-4-deoxy-D-glucose]
Hexokinase [6]
  Ki: 84 mM

## OC[C@H]1OC(O)[C@H]([18F])[C@@H](O)[C@@H]1O (stereo partly drawn) [2-F-2-deoxy-D-glucose, 2-deoxy-2-[^18F]fluoro-D-glucose]
Hexokinase [6]
  Hexokinase Vmax: 0.5
SGLTs [3]; normal human subject, FIGS. 4 and 5
  accumulation in the brain and elimination into the urinary bladder, PET: accumulated in the brain and eliminated into the urinary bladder
SGLTs [5]
  brain uptake / crossing of the blood-brain barrier, microPET: cross the blood-brain barrier and accumulate in the brain

## O=C[C@H](O)[C@@H](O)[C@@H](O)[C@H](O)CO [D-galactose]
Human GLUT1; [13]
  Ki: 90 mM

## COC1O[C@H](CO)[C@@H](F)[C@H](O)[C@H]1O (stereo partly drawn) [Me-4-[^18F]-FDG, methyl 4-deoxy-4-[^18F]fluoro-D-glucopyranoside]
SGLT1 [2]
  Km: 50 µM

## O=C[C@H](O)[C@@H](O)[C@H](O)[C@H](O)CO [D-glucose]
Hexokinase [6]
  Hexokinase Vmax: 1
  Ki: 0.2 mM
Human GLUT1; [14]
  Ki: ~7 mM
Human GLUT1; [13]
  Ki: 6 mM

## OCC1OC(O)C(O)C(F)C1O (stereo not drawn)
Hexokinase [6]
  Hexokinase Vmax: 0.1
  Ki: 70 mM
Human GLUT1; [14]
  Ki: ~7 mM
Human GLUT1; [13]
  Ki: 7 mM
Hexokinase [7]
  substrate quality for hexokinase: poor substrates for hexokinase
Hexokinase [9]
  hexokinase affinity lower than that for D-glucose: 400 fold
  hexokinase maximum velocity lower than that for D-glucose: 10 fold

## OC[C@H]1OC([18F])[C@H](O)[C@@H](O)[C@@H]1O (stereo partly drawn) [1-F-1-deoxy-D-glucose, 1-[^18F]fluoro-1-deoxy-D-glucose]
Hexokinase [7]
  substrate quality for hexokinase: poor substrates for hexokinase

B1: human SGLT1 (Homo sapiens) (protein)
chain: MDSSTWSPKTTAVTRPVETHELIRNAADISIIVIYFVVVMAVGLWAMFSTNRGTVGGFFLAGRSMVWWPIGASLFASNIGSGHFVGLAGTGAASGIAIGGFEWNALVLVVVLGWLFVPIYIKAGVVTMPEYLRKRFGGQRIQVYLSLLSLLLYIFTKISADIFSGAIFINLALGLNLYLAIFLLLAITALYTITGGLAAVIYTDTLQTVIMLVGSLILTGFAFHEVGGYDAFMEKYMKAIPTIVSDGNTTFQEKCYTPRADSFHIFRDPLTGDLPWPGFIFGMSILTLWYWCTDQVIVQRCLSAKNMSHVKGGCILCGYLKLMPMFIMVMPGMISRILYTEKIACVVPSECEKYCGTKVGCTNIAYPTLVVELMPNGLRGLMLSVMLASLMSSLTSIFNSASTLFTMDIYAKVRKRASEKELMIAGRLFILVLIGISIAWVPIVQSAQSGQLFDYIQSITSYLGPPIAAVFLLAIFWKRVNEPGAFWGLILGLLIGISRMITEFAYGTGSCMEPSNCPTIICGVHYLYFAIILFAISFITIVVISLLTKPIPDVHLYRLCWSLRNSKEERIDLDAEEENIQEGPKETIEIETQVPEKKKGIFRRAYDLFCGLEQHGAPKMTEEEEKAMKMKMTDTSEKPLWRTVLNVNGIILVTVAVFCHAYFA
notes: expressed in transfected cells; host or cells: Xenopus laevis oocytes
[11]
  Km: 500 µM
[12]
  Km: 600 µM
